# Reference: article PMC11374673, “Discovery of isoquinoline sulfonamides as allosteric gyrase inhibitors with activity against fluoroquinolone-resistant bacteria” (Nature Chemistry, 2024)
# Where “and” joins values, the source holds several entries; their conditions need not be identical. Equal entries are not always repeated. Entries after “also recorded” stand apart in the source; their conditions may differ.
# How the values were obtained:
# sheep blood cells = experiment: Haemolytic activity; assay type: cell-based; conditions: 20 h incubation with sheep blood cells
# Description: Whole defibrinated sheep blood (10631715, Fisher Scientific) was centrifuged (400g) for 15 min at 4 °C. The supernatant was discarded and the remaining blood cell suspension was mixed with PBS and centrifuged (400g) for 15 min at 4 °C. Washing cycles were repeated at least three times, until the supernatant was clear after centrifugation. The packed blood cells were diluted 25-fold in PBS with 0.002% polysorbate 80. Test compounds were serially diluted twofold in U-bottom polypropylene 96-well microtitre plates in PBS with 0.002% polysorbate 80 (75 µl). An equal volume (75 µl) of the blood cell suspension was added to all wells. […]. The well plates were incubated for 20 h at 37 °C with continuous shaking (500 r.p.m.). After incubation, plates were centrifuged (800g) for 5 min, and 25 µl of supernatant was transferred to a clear UV-star flat-bottom polystyrene 96-well plate containing 100 µl ultrapure water per well. Absorption was measured at 415 nm with a Spark multimode microplate reader (Tecan). Data were corrected for the background response of 0.5% DMSO in the presence of cells with no antibiotic and normalized using the absorbance of 0.1% Triton X-100 with blood cells, as 100% haemolytic activity.
# (UniProt Q2FCU6) = experiment: Gyrase supercoiling inhibition; assay type: biochemical, Acinetobacter baumannii; conditions: read-out: IC50 supercoiling, A. baumannii gyrase
# Description: (§1) Of this stock solution, 27 µl was aliquoted for each reaction in 1.5 ml Eppendorf tubes and supplemented with 0.6 µl of the appropriate compound dilution or corresponding solvent with a final DMSO concentration of 2%. The reactions were started with 3 µl of enzyme (1 U for WT gyrase retrieved from Inspiralis Limited or 25–30 nM gyrase variants purified in house) in dilution buffer (50 mM Tris–HCl (pH 7.5), 100 mM KCl, 2 mM DTT, 1 mM EDTA and 50% (wt/vol) glycerol) for a final volume of 30 µl. Reactions were run at 37 °C for 30 min and stopped with the addition of 30 µl STEB buffer (40% (wt/vol) sucrose, 100 mM Tris–HCl pH 8, 100 mM EDTA, 0.5 mg ml^−1 bromophenol blue) and 30 µl of a chloroform:isoamyl alcohol solution (24:1 vol/vol). After brief vortexing and centrifugation at 2,300g for 1 min, 20 µl of the aqueous phase was loaded onto 1% (wt/vol) agarose gels in TAE (Tris–acetate […]) gel. The gels were run at 85 V for 2 h followed by staining (15 min) in 1 µg ml^−1 ethidium bromide and destaining (5–10 min) in water. DNA was visualized (602/50, UV Trans, auto optimal exposure) with a ChemiDoc MP (Bio-Rad Laboratories Inc., equipped with ImageLab Touch Software v2.0.0.27) and the percentage of supercoiled DNA relative to the total amount material per lane was determined with ImageLab 6.1 software (Bio-Rad Laboratories Inc.) or ImageJ[47] software. […]
# P. aeruginosa gyrase = target: T1, P. aeruginosa gyrase (Pseudomonas aeruginosa, UniProt P48372); experiment: Gyrase supercoiling inhibition; assay type: biochemical
# T1 construct: purchased Inspiralis Ltd. PAG1001
# Description: as §1
# E. coli gyrase [1] = target: T2, E. coli gyrase (Escherichia coli, UniProt P0AES4); experiment: ATP-independent relaxation inhibition; assay type: biochemical; conditions: 200 nM gyrase
# Description: E. coli relaxation inhibition assays were conducted in a similar manner to supercoiling inhibition assays with the following modifications: spermidine and ATP were omitted from the assay buffer, supercoiled plasmid (pBR322) was used as DNA substrate and 200 nM E. coli gyrase was added to each reaction. After stopping each reaction with STEB, 3 µl 2% SDS was added and tubes were vigorously vortexed before loading the aqueous phase onto the gel.
# E. coli gyrase [2] = target: T2, E. coli gyrase; experiment: Time course of CIP- and Ca2+-mediated DNA cleavage; assay type: biochemical; conditions: 5 µM LEI-800
# Description: Time courses of CIP- and Ca^2+-mediated DNA cleavage were performed based on a previously published protocol. E. coli gyrase (200 nM) was incubated at 25 °C in 360 µl reactions with assay buffer (35 mM Tris–HCl (pH 7.5), 24 mM KCl, 4 mM MgCl2, 2 mM DTT, 1.8 mM spermidine, 1 mM ATP, 6.5% (wt/vol) glycerol and 0.1 mg ml^−1 albumin) and 500 ng supercoiled pBR322 DNA (Inspiralis Ltd.). For CIP-induced cleavage, 5 µM […] into the master mix. For Ca^2+-induced cleavage, the assay buffer was supplemented with 5 mM CaCl2. […] At selected timepoints, 30 µl aliquots were withdrawn and stopped by an addition of 3 µl 2% SDS and 3 µl 100 mM EDTA. After the time course, aliquots were treated with proteinase K (0.5 mg ml^−1) for 30 min at 37 °C and extracted with 30 µ chloroform:isoamyl alcohol solution (24:1 vol/vol). The aqueous layers from the assays were mixed with 30 µl STEB and run on 1% agarose TAE gels with 10 µg ml^−1 ethidium bromide at 80 V. Gels were visualized and analysed as described for the supercoiling inhibition assays.
# E. coli W3110 = experiment: Time-kill assay
# Description: From glycerol stocks, bacterial strains were cultured on blood agar plates by overnight incubation at 37 °C. Subsequently, a single colony was cultured in TSB overnight at 37 °C. The culture was diluted 100-fold in fresh CAMHB and grown until early exponential phase (OD600 of 0.25) followed by 100-fold dilution in media. The culture was split in separate culture tubes containing 2 ml. […] The supernatant was discarded and pellets were washed once with filter-sterilized PBS, then resuspended in an equal volume of fresh buffer and samples were tenfold serially diluted until a 10^5 dilution. Then, 10 µl of the appropriate dilutions were inoculated on LB agar plates in technical duplicates, subsequently allowed to evaporate and incubated at 37 °C for 18 h. The colonies were counted and used to calculate the colony forming unit (c.f.u.) per ml remaining in the original culture by taking the dilution factors into account. The experiment was performed in biological duplicates.
# T2 sequence (P0AES4 whole entry): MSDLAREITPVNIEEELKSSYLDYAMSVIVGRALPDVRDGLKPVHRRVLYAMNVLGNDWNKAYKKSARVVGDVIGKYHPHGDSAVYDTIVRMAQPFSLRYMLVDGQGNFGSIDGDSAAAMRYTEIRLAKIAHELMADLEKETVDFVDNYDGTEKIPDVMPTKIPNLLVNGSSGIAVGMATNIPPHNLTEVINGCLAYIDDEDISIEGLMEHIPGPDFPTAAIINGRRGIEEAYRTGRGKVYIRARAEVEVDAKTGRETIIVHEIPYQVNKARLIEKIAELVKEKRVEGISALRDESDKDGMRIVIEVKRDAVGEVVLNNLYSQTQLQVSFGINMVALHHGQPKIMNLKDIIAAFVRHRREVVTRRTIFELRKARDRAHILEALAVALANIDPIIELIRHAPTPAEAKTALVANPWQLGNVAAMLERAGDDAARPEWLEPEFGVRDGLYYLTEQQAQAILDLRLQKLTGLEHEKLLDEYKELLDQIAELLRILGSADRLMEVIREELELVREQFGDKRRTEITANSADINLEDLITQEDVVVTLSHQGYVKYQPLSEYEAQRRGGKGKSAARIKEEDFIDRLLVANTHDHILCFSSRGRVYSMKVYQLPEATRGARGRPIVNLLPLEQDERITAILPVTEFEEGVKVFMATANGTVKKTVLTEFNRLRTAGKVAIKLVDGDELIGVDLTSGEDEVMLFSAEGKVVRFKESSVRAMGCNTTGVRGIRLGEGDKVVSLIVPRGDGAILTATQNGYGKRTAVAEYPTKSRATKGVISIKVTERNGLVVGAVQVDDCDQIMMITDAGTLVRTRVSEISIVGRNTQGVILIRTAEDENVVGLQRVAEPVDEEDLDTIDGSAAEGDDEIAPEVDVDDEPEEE
# T1 sequence (P48372 whole entry): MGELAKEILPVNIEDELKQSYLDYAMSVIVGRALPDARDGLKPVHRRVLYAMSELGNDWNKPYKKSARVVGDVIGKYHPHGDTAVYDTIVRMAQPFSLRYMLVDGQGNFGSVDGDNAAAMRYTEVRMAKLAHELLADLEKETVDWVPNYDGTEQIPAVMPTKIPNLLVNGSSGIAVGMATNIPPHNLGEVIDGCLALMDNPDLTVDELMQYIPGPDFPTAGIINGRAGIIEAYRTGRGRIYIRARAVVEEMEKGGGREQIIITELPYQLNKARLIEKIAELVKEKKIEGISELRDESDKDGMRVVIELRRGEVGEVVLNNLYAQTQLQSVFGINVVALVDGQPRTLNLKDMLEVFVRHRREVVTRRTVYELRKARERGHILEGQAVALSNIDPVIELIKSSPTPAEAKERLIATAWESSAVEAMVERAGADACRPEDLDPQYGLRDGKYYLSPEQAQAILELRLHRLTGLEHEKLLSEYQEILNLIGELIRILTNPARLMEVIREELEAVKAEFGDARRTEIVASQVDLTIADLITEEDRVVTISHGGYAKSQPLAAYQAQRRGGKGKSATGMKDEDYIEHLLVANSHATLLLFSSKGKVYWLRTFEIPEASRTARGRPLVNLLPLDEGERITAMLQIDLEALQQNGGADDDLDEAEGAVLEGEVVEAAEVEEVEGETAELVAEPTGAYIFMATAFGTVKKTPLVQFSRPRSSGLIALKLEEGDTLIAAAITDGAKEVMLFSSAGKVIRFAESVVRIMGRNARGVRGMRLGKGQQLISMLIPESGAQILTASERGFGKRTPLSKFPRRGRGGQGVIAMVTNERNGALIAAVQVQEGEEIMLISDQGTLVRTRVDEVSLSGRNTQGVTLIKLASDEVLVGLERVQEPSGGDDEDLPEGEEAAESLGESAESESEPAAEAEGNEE
# T1 sequence (Q9I7C2 whole entry, further chain): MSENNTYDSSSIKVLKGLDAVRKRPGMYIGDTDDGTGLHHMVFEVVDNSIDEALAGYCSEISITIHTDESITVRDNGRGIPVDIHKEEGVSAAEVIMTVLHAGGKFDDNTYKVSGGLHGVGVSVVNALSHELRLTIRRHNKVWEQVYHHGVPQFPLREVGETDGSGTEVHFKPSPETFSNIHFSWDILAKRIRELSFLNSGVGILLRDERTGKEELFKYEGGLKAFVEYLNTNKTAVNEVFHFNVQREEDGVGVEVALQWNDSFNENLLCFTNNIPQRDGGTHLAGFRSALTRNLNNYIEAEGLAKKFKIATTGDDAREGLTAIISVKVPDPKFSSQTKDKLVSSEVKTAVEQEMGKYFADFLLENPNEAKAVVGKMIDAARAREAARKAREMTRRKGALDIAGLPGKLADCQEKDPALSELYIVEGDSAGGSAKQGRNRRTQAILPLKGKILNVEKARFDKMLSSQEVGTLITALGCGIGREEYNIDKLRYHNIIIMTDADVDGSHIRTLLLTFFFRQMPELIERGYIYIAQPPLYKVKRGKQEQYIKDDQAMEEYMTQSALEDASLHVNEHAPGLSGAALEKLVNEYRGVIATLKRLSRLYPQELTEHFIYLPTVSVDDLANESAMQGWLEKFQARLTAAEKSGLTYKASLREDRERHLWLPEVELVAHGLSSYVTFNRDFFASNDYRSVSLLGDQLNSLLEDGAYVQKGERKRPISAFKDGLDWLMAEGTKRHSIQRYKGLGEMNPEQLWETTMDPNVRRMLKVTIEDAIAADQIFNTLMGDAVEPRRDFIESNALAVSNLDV
structure (smiles),measurement,setting,value
O=S(=O)(NC[C@@H]1CC[C@H](c2ccc(-c3cccnc3)cc2)N1)c1cccc2cnccc12 [LEI-800],haemolytic activity,sheep blood cells,no haemolytic activity
same,IC50,(UniProt Q2FCU6),103 nM
same,IC50,P. aeruginosa gyrase,96 nM
same,ATP-independent supercoiling relaxation,E. coli gyrase [1],inhibited
same,CIP-mediated DNA cleavage,E. coli gyrase [2]; 5 µM CIP,amount of cleaved DNA is reduced; also recorded: clear inhibition
same,Ca2+-mediated DNA cleavage,E. coli gyrase [2]; 5 mM Ca2+,amount of cleaved DNA is reduced; also recorded: strongly inhibited
same,"time kill kinetics, bacterial count","E. coli W3110; 4xMIC, 0.5 h, n = 1 and n = 2",5.021 and 5.23
same,"time kill kinetics, bacterial count","E. coli W3110; 4xMIC, 1 h",5.061 and 4.929
same,"time kill kinetics, bacterial count","E. coli W3110; 4xMIC, 2 h",5.041 and 5.176
same,"time kill kinetics, bacterial count","E. coli W3110; 4xMIC, 4 h",3.061 and 3.243
same,"time kill kinetics, bacterial count","E. coli W3110; 4xMIC, 8 h",2 and 2.778
same,"time kill kinetics, bacterial count","E. coli W3110; 4xMIC, 24 h",5.176 and 4.875
same,"time kill kinetics, bacterial count","E. coli W3110; 8xMIC, 0.5 h",5.243 and 5.021
same,"time kill kinetics, bacterial count","E. coli W3110; 8xMIC, 1 h",4.431 and 4.732
same,"time kill kinetics, bacterial count","E. coli W3110; 8xMIC, 2 h",4.903 and 5
same,"time kill kinetics, bacterial count","E. coli W3110; 8xMIC, 4 h",3.13 and 3.079
same,"time kill kinetics, bacterial count","E. coli W3110; 8xMIC, 8 h",2.301 and 2
same,"time kill kinetics, bacterial count","E. coli W3110; 8xMIC, 24 h",1.99
same,bactericidal activity,E. coli W3110; at higher concentrations,bactericidal
